Inhibition data for 24 compounds are collected here from ChEMBL document CHEMBL5606460, “ASAP - DENV-2 NS2B-NS3 protease fluorescence single point” (2024).

This assay has as its target Genome polyprotein (dengue virus type 2) (UniProt P29990). The conditions noted are these: Number of replicates 1.0.
Where [1] appears, read: Thailand/16681/1984, Concentration 50.0 uM.
The mark [2] stands for this setting: Thailand/16681/1984, Concentration 100.0 uM.
[3] abbreviates: Thailand/16681/1984, Concentration 150.0 uM.
[4] abbreviates: Thailand/16681/1984, Concentration 200.0 uM.

As a reminder, the inhibition is the change of the read-out against control, counted positive when it falls. Turning to `NC(=O)c1ccc(Cn2nnc(C=Cc3ccccc3)n2)cc1`, the inhibition under setting [1] is -4.9%, the inhibition under setting [2] was 8.5%, the inhibition under setting [3] stood at 4.33% and the inhibition under setting [4] is 12.7%.
Turning to `Cc1sc2nc(-c3cccs3)[nH]c(=O)c2c1C`, the inhibition under setting [1] was -5.01%, the inhibition under setting [2] came to 0.922% and the inhibition under setting [4] is -9.15%.
For `O=S1(=O)CCN(CC#Cc2ccc3sncc3c2)CC1`, the inhibition under setting [2] is -9.23% and the inhibition under setting [4] turned out to be 2.54%.
Consider `Brc1nc(Br)n(Cc2cscn2)n1`, for which the inhibition was -6.97% under setting [1], 2.39% under setting [2], -9.57% under setting [3] and -1.34% under setting [4].
As to `[O-][S@@+](Cc1ncccn1)c1ncccc1Br`, the inhibition is -6.39% under setting [1], 2.18% under setting [2], -5.36% under setting [3] and -0.101% under setting [4].
`O=c1ccc(-n2cncn2)nn1CC=Cc1ccccc1`: the inhibition is, setting by setting: under setting [1], -6.72%; under setting [2], -7%; under setting [4], -8.49%.
`Cc1nnc(CSc2ncnc3sccc23)o1`: the inhibition is, setting by setting: under setting [1], 8.23%; under setting [2], 30.9%; under setting [3], 40.5%; under setting [4], 55%.
Turning to `c1ccc2[nH]c(CC3CCN(Cc4nccs4)CC3)nc2c1`, the inhibition is -1.22% under setting [2] and -8.35% under setting [4].
In the same order, the values of `CCSc1nnc(SCCn2nc3ccccn3c2=O)s1` are 5.4% and 2.68%.
In the same order, the values of `C[S@@+]([O-])c1nncn1Cc1ccc(Cl)s1` are 0.166% and -6.67%.
For the compound `O=c1ccn(Cc2cc(=O)n3ccccc3n2)c2ccsc12`, the inhibition under setting [1] was -1.76%, the inhibition under setting [2] is 3.86%, the inhibition under setting [3] was -8.57% and the inhibition under setting [4] came to 4.39%.
In the same order, the values of `N#Cc1ccc(OCCn2nnn(-c3ccccc3)c2=O)cc1` are -7.79%, -0.08%, -4.33% and -2.04%.
In the case of `c1cc(-c2nnc(NCc3nnn[nH]3)s2)no1`, the inhibition was -2.38% under setting [2] and -2.02% under setting [4].
For `c1csc(CSc2nnc(Cn3cncn3)o2)c1` the same measures were 4.46% and -3.48%.
Regarding `Cn1ncnc1Sc1nc(C2CCCC2)ns1`, the inhibition is -3.66% under setting [1], 5.27% under setting [2], -9.35% under setting [3] and 3.96% under setting [4].
In the case of `Brc1cnn(C2CCN(Cc3csnn3)CC2)c1`, the inhibition under setting [1] was -3.22%, the inhibition under setting [2] turned out to be 5.64% and the inhibition under setting [4] was determined as 5.63%.
Regarding `O=c1oc2cccnc2n1CC=Cc1ccccc1`, the inhibition is, setting by setting: under setting [2], 18.7%; under setting [3], -5.05%; under setting [4], 16.8%.
As to `O=c1ccccn1-c1ncc(Br)cn1`, the inhibition under setting [1] was -2.83%, the inhibition under setting [2] was -4.93%, the inhibition under setting [3] is -7.63% and the inhibition under setting [4] was determined as 1.63%.
Turning to `FC(F)(F)c1nc(CNCc2cocn2)cs1`, the inhibition reads like this: under setting [2], 1.67%; under setting [3], -9.44%; under setting [4], -3.73%.
In the case of `O=C(O)c1sc2cccnc2c1Br`, the inhibition reads like this: under setting [1], -8.71%; under setting [2], 12%; under setting [4], 2.09%.
For `O=C(NCc1ccco1)c1csc(Br)c1` the same measures were -4.81%, 6.83% and 0.818%.
In the same order, the values of `Brc1ccsc1CSc1cnn[nH]1` are -4.71%, 11.3% and 11%.
`O=c1[nH]c(CSc2ccccc2Cl)nc2ccsc12`: the inhibition reads like this: under setting [1], -5.28%; under setting [2], 18%; under setting [3], -7.62%; under setting [4], 26%.
As for `Cc1nnnn1Cc1ncc(Br)s1`, under setting [4], the inhibition was -5%.
